# Legend:
# [1] = molecular target: T1, oleate desaturase (OD) (Trypanosoma brucei, UniProt Q6UCJ6); assay: whole-cell […]-oleate desaturation, argentation-TLC and scintillation counting; type: cell-based; conditions: intact bloodstream-form cells; 50 µM 13-TS, 30 min preincubation, 60 min with [14C]-oleate; may act as a metabolite of the added acid
# T1 construct: native full-length enzyme in intact T. brucei cells
# T1 sequence (Q6UCJ6 1-408): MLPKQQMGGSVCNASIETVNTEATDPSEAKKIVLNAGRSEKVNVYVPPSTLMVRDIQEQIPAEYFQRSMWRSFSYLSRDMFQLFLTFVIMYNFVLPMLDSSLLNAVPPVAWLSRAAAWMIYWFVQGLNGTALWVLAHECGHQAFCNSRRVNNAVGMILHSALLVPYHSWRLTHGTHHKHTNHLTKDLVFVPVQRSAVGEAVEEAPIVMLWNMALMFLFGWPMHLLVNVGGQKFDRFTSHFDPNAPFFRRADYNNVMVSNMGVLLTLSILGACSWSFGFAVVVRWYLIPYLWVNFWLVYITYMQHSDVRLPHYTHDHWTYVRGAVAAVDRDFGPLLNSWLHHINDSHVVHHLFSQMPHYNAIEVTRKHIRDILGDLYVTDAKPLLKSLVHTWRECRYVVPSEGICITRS
# [2] = molecular target: T2, stearoyl-CoA desaturase (SCD) (Trypanosoma brucei, UniProt Q57YK1); assay: whole-cell […]-stearate desaturation, argentation-TLC and scintillation counting; type: cell-based; conditions: intact bloodstream-form cells; 50 µM 13-TS, 30 min preincubation, 60 min with [14C]-stearate; may act as a metabolite of the added acid
# T2 construct: gene Tb08.11J15.870; native enzyme in intact bloodstream-form cells; carries a cytochrome b-like domain
# T2 sequence (Q57YK1 1-431): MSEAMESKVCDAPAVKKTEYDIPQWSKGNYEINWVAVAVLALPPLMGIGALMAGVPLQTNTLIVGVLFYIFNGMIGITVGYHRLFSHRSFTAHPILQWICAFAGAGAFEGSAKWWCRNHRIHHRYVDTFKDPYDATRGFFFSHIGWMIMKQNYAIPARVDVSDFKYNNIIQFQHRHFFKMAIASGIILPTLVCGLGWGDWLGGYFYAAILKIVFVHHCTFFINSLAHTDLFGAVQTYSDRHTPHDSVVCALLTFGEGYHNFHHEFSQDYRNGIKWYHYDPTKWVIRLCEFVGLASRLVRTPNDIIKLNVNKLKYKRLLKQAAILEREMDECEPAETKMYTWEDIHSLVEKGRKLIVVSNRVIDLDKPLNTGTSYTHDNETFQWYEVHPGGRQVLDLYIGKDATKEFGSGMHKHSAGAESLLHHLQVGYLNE
structure (smiles),measurement,setting,value
"CCCCCSCCCCCCCCCCCC(=O)O [13-TS, 13-thiastearic acid]",% conversion of oleate to linoleate with 50 μM inhibitor (control 20.4%),[1],7.7%
same,% conversion of stearate to oleate with 50 μM inhibitor (control 23.1%),[2],19%

# From paper PMC2997783, “Genetic and Chemical Evaluation of Trypanosoma brucei Oleate Desaturase as a Candidate Drug Target” (PLoS ONE, 2010)
